Measured values as given in patent publication EP4610269A1, “UROKINASE PLASMINOGEN ACTIVATOR SURFACE RECEPTOR (UPAR) LIGANDS FOR DIAGNOSTIC OR THERAPEUTIC USE” (3B Pharmaceuticals GmbH, priority 2024, dated 2025).
Where two headings read alike, the source gives them in different places. Where a SMILES comes first, the peptide text is derived from it. Bridges are numbered along the chain shown (N, C = ends). [ ]: non-standard residue; d: D form. The star is where a group is joined. DOTA = O=C(O)CN1CCN(CC(=O)O)CCN(CC(=O)*)CCN(CC(=O)O)CC1; Phe(4-Cl) = N[C@@H](Cc1ccc(Cl)cc1)C(=O)O; Pentanesulfonyl = CCCCCS(=O)(=O)*; Propanoyl(3-NMe2) = CN(C)CCC(=O)*; Hyp = O=C(O)[C@@H]1C[C@@H](O)CN1; NMeI = CC[C@H](C)[C@H](NC)C(=O)O; 4Pal = N[C@@H](Cc1ccncc1)C(=O)O; NMeE = CN[C@@H](CCC(=O)O)C(=O)O; Pentanoyl(4-Me) = CC(C)CCC(=O)*; Cit = NC(=O)NCCC[C@H](N)C(=O)O; NMeNle = CCCC[C@H](NC)C(=O)O; Nle = CCCC[C@H](N)C(=O)O; dDap = NC[C@@H](N)C(=O)O; Nva = CCC[C@H](N)C(=O)O; Pentanoyl = CCCCC(=O)*

Tests used:
[1] = molecular target: T1, uPAR-expressing HEC-265 human endometrial adenocarcinoma cells (Homo sapiens, UniProt Q03405); experiment: Competitive FACS binding assay; conditions: pIC50 category of FACS binding
T1 construct: Cell surface uPAR-expressing HEC-265 human endometrial adenocarcinoma cells; host or cells: HEC-265
T1 sequence (Q03405 23-335): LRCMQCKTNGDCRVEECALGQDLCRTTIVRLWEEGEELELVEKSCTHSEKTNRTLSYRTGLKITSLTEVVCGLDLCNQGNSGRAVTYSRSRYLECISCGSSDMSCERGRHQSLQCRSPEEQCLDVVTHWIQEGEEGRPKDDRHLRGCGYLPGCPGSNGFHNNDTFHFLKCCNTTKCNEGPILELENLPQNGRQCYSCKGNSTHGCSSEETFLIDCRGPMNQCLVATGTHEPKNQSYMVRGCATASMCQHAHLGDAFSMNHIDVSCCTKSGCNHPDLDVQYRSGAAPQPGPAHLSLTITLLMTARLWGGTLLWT
Outline: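 HEC-265 cells incubated 1 h at 4 °C with 10 nM biotinylated uPAR peptide tracer plus increasing test compound, then stained with APC-streptavidin on ice. Median APC fluorescence by flow cytometry; 4PL fit gives pIC50.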

human uPAR (uPAR-Fc) = molecular target: T2, human uPAR (uPAR-Fc) (Homo sapiens, UniProt Q03405); experiment: Surface plasmon resonance (SPR) assay, single cycle kinetics; assay type: binding; conditions: pKD category for uPAR SPR activity assay, uPAR-Fc on Protein A-Chip, 25°C, read-out: pKD CAT (converted)
T2 construct: comprising amino acids Leu23-Arg303 according to UniProt entry Q03405.1; purchased R&D Systems 10378-UK-100
T2 sequence (Q03405 23-303): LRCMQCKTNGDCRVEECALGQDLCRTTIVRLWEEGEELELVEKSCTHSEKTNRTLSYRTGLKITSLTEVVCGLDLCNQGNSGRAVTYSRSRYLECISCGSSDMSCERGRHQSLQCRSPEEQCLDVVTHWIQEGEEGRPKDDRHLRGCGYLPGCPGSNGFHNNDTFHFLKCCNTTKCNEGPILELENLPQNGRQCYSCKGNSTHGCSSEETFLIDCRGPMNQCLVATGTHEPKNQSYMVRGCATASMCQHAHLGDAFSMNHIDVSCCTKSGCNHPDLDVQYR
Outline: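 uPAR-Fc (Leu23-Arg303 extracellular domains, human IgG1 Fc) captured on Protein A chip to ~2000 RU; single-cycle kinetics at 25°C in HEPES running buffer pH 7.4 with 0.1% DMSO. KD from double-referenced sensorgrams fitted to 1:1 Langmuir model, reported as pKD.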

| SMILES | IC50 [1] | Kd (human uPAR (uPAR-Fc)) | Kd (human uPAR (uPAR-Fc); single cycle kinetics) |
| --- | --- | --- | --- |
| CCCCC(=O)N[C@H]1CSSC[C@@H](C(N)=O)NC(=O)[C@H](CCC)NC(=O)[C@H]([C@@H](C)CC)NC(=O)[C@H](CCC(=O)O)N(C)C(=O)[C@@H]2CCCN2C(=O)[C@H](Cc2ccccc2)NC(=O)[C@H](Cc2ccc(O)cc2)NC(=O)[C@H](CCCCNC(=O)CN2CCN(CC(=O)O)CCN(CC(=O)O)CCN(CC(=O)O)CC2)NC(=O)[C@H](CCCNC(N)=O)NC1=O [UPAR-327, Pent-[Cys-Cit-Lys(DOTA)-Tyr-Phe-Pro-Nme-Ile-Nva-Cys]-NH2] (Pentanoyl-C[Cit]K(DOTA)YFP[NMeE]I[Nva]C-NH2; disulfide 1-10) | ≥ 126 nM | > 100 nM | – |
| CCCCCS(=O)(=O)N[C@H]1CSSC[C@@H](C(N)=O)NC(=O)[C@H](CCC)NC(=O)[C@H]([C@@H](C)CC)NC(=O)[C@@H]2C[C@@H](O)CN2C(=O)[C@@H]2CCCN2C(=O)[C@H](Cc2ccccc2)NC(=O)[C@H](Cc2ccc(O)cc2)NC(=O)[C@H](CCC(N)=O)NC(=O)[C@H](CCCNC(=N)N)NC1=O [UPAR-328, PentylSO2-[Cys-Arg-Gln-Tyr-Phe-Pro-Hyp-Ile-Nva-Cys]-NH2] (Pentanesulfonyl-CRQYFP[Hyp]I[Nva]C-NH2; disulfide 1-10) | ≤ 10 nM | < 1.58 nM | – |
| CCCCC(=O)N[C@H]1CSSC[C@@H](C(N)=O)NC(=O)[C@H](CCC)NC(=O)[C@H]([C@@H](C)CC)NC(=O)[C@@H](CN)NC(=O)[C@@H]2CCCN2C(=O)[C@H](Cc2ccccc2)NC(=O)[C@H](Cc2ccc(O)cc2)NC(=O)[C@H](CCC(N)=O)NC(=O)[C@H](CCCNC(=N)N)NC1=O [UPAR-330, Pent-[Cys-Arg-Gln-Tyr-Phe-Pro-dap-Ile-Nva-Cys]-NH2] (Pentanoyl-CRQYFP[dDap]I[Nva]C-NH2; disulfide 1-10) | ≤ 10 nM | < 1.58 nM | – |
| CC[C@H](C)[C@@H]1NC(=O)[C@H](C)NC(=O)[C@@H]2CCCN2C(=O)[C@H](Cc2ccccc2)NC(=O)[C@H](Cc2ccc(O)cc2)NC(=O)[C@H](CCSC)NC(=O)[C@H](CCCNC(=N)N)NC(=O)[C@@H](NC(=O)[C@H](CC(C)C)NC(=O)[C@H](CC(=O)O)NC(C)=O)CSSC[C@@H](C(N)=O)NC(=O)[C@H](CC(C)C)NC1=O [UPAR-341, Ac-Asp-Leu-[Cys-Arg-Met-Tyr-Phe-Pro-Ala-Ile-Leu-Cys]-NH2] (Ac-DLCRMYFPAILC-NH2; disulfide 3-12) | ≤ 10 nM | < 1.58 nM | – |
| CC[C@H](C)[C@@H]1NC(=O)[C@@H](C)NC(=O)[C@@H]2CCCN2C(=O)[C@H](Cc2ccc(O)cc2)NC(=O)[C@H](Cc2ccc(O)cc2)NC(=O)[C@H](CCC(N)=O)NC(=O)[C@H](CCCNC(N)=O)NC(=O)[C@@H](NC(=O)CCC(C)C)CSSC[C@@H](C(N)=O)NC(=O)[C@H](CC(C)C)NC1=O [UPAR-343, iHex-[Cys-Cit-Gln-Tyr-Tyr-Pro-ala-Ile-Leu-Cys]-NH2] ({Pentanoyl(4-Me)}-C[Cit]QYYP[dA]ILC-NH2; disulfide 1-10) | 12.6 to 31.6 nM | 10 to 100 nM | – |
| CCCCC(=O)N[C@H]1CSSC[C@@H](C(N)=O)NC(=O)[C@H](CCC)NC(=O)[C@H]([C@@H](C)CC)NC(=O)[C@H](CC(=O)O)NC(=O)[C@@H]2CCCN2C(=O)[C@H](Cc2ccccc2)NC(=O)[C@H](Cc2ccc(O)cc2)NC(=O)[C@H](CCC(N)=O)NC(=O)[C@H](CCCNC(=N)N)NC1=O [UPAR-344, Pent-[Cys-Arg-Gln-Tyr-Phe-Pro-Asp-Ile-Nva-Cys]-NH2] (Pentanoyl-CRQYFPDI[Nva]C-NH2; disulfide 1-10) | ≤ 10 nM | < 1.58 nM | – |

Now from value to compound:

| IC50 [1] | Kd (human uPAR (uPAR-Fc)) | Kd (human uPAR (uPAR-Fc); single cycle kinetics) | SMILES |
| --- | --- | --- | --- |
| ≤ 10 nM | < 1.58 nM | – | CCCCC(=O)N[C@H]1CSSC[C@@H](C(N)=O)NC(=O)[C@H](CCC)NC(=O)[C@H]([C@@H](C)CC)NC(=O)[C@@H](CO)NC(=O)[C@@H]2CCCN2C(=O)[C@H](Cc2ccccc2)NC(=O)[C@H](Cc2ccc(O)cc2)NC(=O)[C@H](CCC(N)=O)NC(=O)[C@H](CCCNC(=N)N)NC1=O [UPAR-329, Pent-[Cys-Arg-Gln-Tyr-Phe-Pro-ser-Ile-Nva-Cys]-NH2] (Pentanoyl-CRQYFP[dS]I[Nva]C-NH2; disulfide 1-10) |
| ≤ 10 nM | < 1.58 nM | – | CC[C@H](C)[C@@H]1NC(=O)[C@@H](C)NC(=O)[C@@H]2CCCN2C(=O)[C@H](Cc2ccc(Cl)cc2)NC(=O)[C@H](Cc2ccc(O)cc2)NC(=O)[C@H](CCC(N)=O)NC(=O)[C@H](CCCNC(N)=O)NC(=O)[C@@H](NC(=O)CCC(C)C)CSSC[C@@H](C(N)=O)NC(=O)[C@H](CC(C)C)NC1=O [UPAR-332, iHex-[Cys-Cit-Gln-Tyr-Pcf-Pro-ala-Ile-Leu-Cys]-NH2] ({Pentanoyl(4-Me)}-C[Cit]QY[Phe(4-Cl)]P[dA]ILC-NH2; disulfide 1-10) |
| 39.8 to 100 nM | > 100 nM | – | CC[C@H](C)[C@@H]1NC(=O)[C@@H](C)NC(=O)[C@@H]2CCCN2C(=O)[C@H](Cc2ccccc2)NC(=O)[C@H](Cc2ccc(O)cc2)NC(=O)[C@H](CCC(N)=O)NC(=O)[C@H](CCCNC(N)=O)NC(=O)[C@@H](NC(=O)CCN(C)C)CSSC[C@@H](C(N)=O)NC(=O)[C@H](CC(C)C)NC1=O [UPAR-333, Dmba-[Cys-Cit-Gln-Tyr-Phe-Pro-ala-Ile-Leu-Cys]-NH2] ({Propanoyl(3-NMe2)}-C[Cit]QYFP[dA]ILC-NH2; disulfide 1-10) |
| ≥ 126 nM | > 100 nM | – | CC[C@H](C)[C@@H]1NC(=O)[C@@H](C)NC(=O)[C@@H]2CCCN2C(=O)[C@H](Cc2ccccc2)NC(=O)[C@H](Cc2ccc(O)cc2)NC(=O)[C@H](CCC(N)=O)NC(=O)[C@H](CCCNC(N)=O)NC(=O)[C@@H](NC(=O)CNC(C)=O)CSSC[C@@H](C(N)=O)NC(=O)[C@H](CC(C)C)NC1=O [UPAR-334, Ac-Gly-[Cys-Cit-Gln-Tyr-Phe-Pro-ala-Ile-Leu-Cys]-NH2] (Ac-GC[Cit]QYFP[dA]ILC-NH2; disulfide 2-11) |
| ≤ 10 nM | < 1.58 nM | – | CCCCC(=O)N[C@H]1CSSC[C@@H](C(N)=O)NC(=O)[C@H](CCC)NC(=O)[C@H]([C@@H](C)CC)NC(=O)[C@@H]2C[C@@H](O)CN2C(=O)[C@@H]2CCCN2C(=O)[C@H](Cc2ccccc2)NC(=O)[C@H](Cc2ccncc2)NC(=O)[C@H](CCCCNC(=O)CN2CCN(CC(=O)O)CCN(CC(=O)O)CCN(CC(=O)O)CC2)NC(=O)[C@H](CCCNC(N)=O)NC1=O [UPAR-336, Pent-[Cys-Cit-Lys(DOTA)-Ppa-Phe-Pro-Hyp-Ile-Nva-Cys]-NH2] (Pentanoyl-C[Cit]K(DOTA)[4Pal]FP[Hyp]I[Nva]C-NH2; disulfide 1-10) |
| ≥ 126 nM | < 1.58 nM | – | CCCCC(=O)N[C@H]1CSSC[C@@H](C(N)=O)NC(=O)[C@H](CCC)NC(=O)[C@H]([C@@H](C)CC)NC(=O)[C@@H]2C[C@@H](O)CN2C(=O)[C@H](CCCC)N(C)C(=O)[C@H](Cc2ccccc2)NC(=O)[C@H](Cc2ccc(O)cc2)NC(=O)[C@H](CCC(N)=O)NC(=O)[C@H](CCCNC(=N)N)NC1=O [UPAR-337, Pent-[Cys-Arg-Gln-Tyr-Phe-Nmb-Hyp-Ile-Nva-Cys]-NH2] (Pentanoyl-CRQYF[NMeNle][Hyp]I[Nva]C-NH2; disulfide 1-10) |
| ≤ 10 nM | 1.58 to 10 nM | – | CC[C@H](C)[C@@H]1NC(=O)[C@@H](C)NC(=O)[C@@H]2CCCN2C(=O)[C@H](Cc2ccccc2)NC(=O)[C@H](Cc2ccc(O)cc2)NC(=O)[C@H](C)NC(=O)[C@H](CCCNC(N)=O)NC(=O)[C@@H](NC(=O)CCC(C)C)CSSC[C@@H](C(N)=O)NC(=O)[C@H](CC(C)C)NC1=O [UPAR-339, iHex-[Cys-Cit-Ala-Tyr-Phe-Pro-ala-Ile-Leu-Cys]-NH2] ({Pentanoyl(4-Me)}-C[Cit]AYFP[dA]ILC-NH2; disulfide 1-10) |
| ≥ 126 nM | 10 to 100 nM | – | CC[C@H](C)[C@H]1C(=O)N[C@@H](CC(C)C)C(=O)N[C@H](C(N)=O)CSSC[C@H](NC(=O)CCC(C)C)C(=O)N[C@@H](CCCNC(N)=O)C(=O)N[C@@H](CCC(N)=O)C(=O)N[C@@H](Cc2ccc(O)cc2)C(=O)N[C@@H](Cc2ccccc2)C(=O)N2CCC[C@H]2C(=O)N[C@H](C)C(=O)N1C [UPAR-340, iHex-[Cys-Cit-Gln-Tyr-Phe-Pro-ala-Nmi-Leu-Cys]-NH2] ({Pentanoyl(4-Me)}-C[Cit]QYFP[dA][NMeI]LC-NH2; disulfide 1-10) |
| ≤ 10 nM | < 1.58 nM | – | CCCCC(=O)N[C@H]1CSSC[C@@H](C(N)=O)NC(=O)[C@H](CCC)NC(=O)[C@H]([C@@H](C)CC)NC(=O)[C@@H]2C[C@@H](O)CN2C(=O)[C@@H]2CCCN2C(=O)[C@H](Cc2ccccc2)NC(=O)[C@H](Cc2ccc(O)cc2)NC(=O)[C@H](CCCCNC(=O)CN2CCN(CC(=O)O)CCN(CC(=O)O)CCN(CC(=O)O)CC2)NC(=O)[C@H](CO)NC1=O [UPAR-342, Pent-[Cys-Ser-Lys(DOTA)-Tyr-Phe-Pro-Hyp-Ile-Nva-Cys]-NH2] (Pentanoyl-CSK(DOTA)YFP[Hyp]I[Nva]C-NH2; disulfide 1-10) |
| ≤ 10 nM | – | 1.58 to 10 nM | CCCC[C@@H]1NC(=O)[C@H]([C@@H](C)CC)NC(=O)[C@@H](C)NC(=O)[C@@H]2CCCN2C(=O)[C@H](Cc2ccccc2)NC(=O)[C@H](Cc2ccc(O)cc2)NC(=O)[C@H](CCC(N)=O)NC(=O)[C@H](CCCNC(N)=O)NC(=O)[C@@H](NC(=O)CCC(C)C)CSSC[C@@H](C(N)=O)NC1=O [UPAR-345, iHex-[Cys-Cit-Gln-Tyr-Phe-Pro-ala-Ile-Nle-Cys]-NH2] ({Pentanoyl(4-Me)}-C[Cit]QYFP[dA]I[Nle]C-NH2; disulfide 1-10) |
